Experimental data taken from patent US9828379B2 (priority 2013, dated 2017).

Legend:
MAGL [1] = target: T1, MAGL (Mus musculus, UniProt O35678); experiment: In vitro competitive activity-based protein profiling (Table 2, % inhibition at 1 μM); type: biochemical; conditions: read-out: % Inhibition at 1 μM MAGL
T1 sequence (O35678 1-303): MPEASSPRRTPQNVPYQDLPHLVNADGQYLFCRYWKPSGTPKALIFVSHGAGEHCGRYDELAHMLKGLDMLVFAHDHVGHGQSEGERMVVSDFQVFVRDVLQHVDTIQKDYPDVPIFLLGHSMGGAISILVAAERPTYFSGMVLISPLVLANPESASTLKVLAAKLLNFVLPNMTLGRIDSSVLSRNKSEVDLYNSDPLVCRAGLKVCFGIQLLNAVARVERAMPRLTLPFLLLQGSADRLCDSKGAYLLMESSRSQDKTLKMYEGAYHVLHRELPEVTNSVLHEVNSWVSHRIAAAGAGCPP
Description: After 30 min, FP—Rh (1.0 μL, 50 μM in DMSO) was added and the mixture was incubated for another 30 min at 37° C. Reactions were quenched with SDS loading buffer (50 μL-4×) and run on SDS-PAGE.
Cell lysates were diluted with mock proteomes for use in competitive ABPP experiments.

Mouse brain MAGL = target: T2, Mouse brain MAGL (Mus musculus, UniProt O35678); experiment: Mouse brain proteomes from inhibitor treated mice (oral gavage, ABPP analysis); type: in vivo; conditions: p.o., sacrificed 4 h following administration
T2 construct: from tissue; host or cells: brain of wild-type C57Bl/6J mice dosed by oral gavage
T2 sequence (O35678 1-303): T1 sequence (O35678 1-303)

MAGL [2] = target: T1, MAGL; experiment: biochemical; conditions: mouse; in vitro competitive ABPP; read-out: Mouse (IC50 value, nM) MAGL
FAAH [3] = target: T3, FAAH (Mus musculus, UniProt O08914); experiment: In vitro competitive activity-based protein profiling (Table 2, % inhibition at 1 μM); type: biochemical; conditions: read-out: % Inhibition at 1 μM FAAH
T3 sequence (O08914 1-579): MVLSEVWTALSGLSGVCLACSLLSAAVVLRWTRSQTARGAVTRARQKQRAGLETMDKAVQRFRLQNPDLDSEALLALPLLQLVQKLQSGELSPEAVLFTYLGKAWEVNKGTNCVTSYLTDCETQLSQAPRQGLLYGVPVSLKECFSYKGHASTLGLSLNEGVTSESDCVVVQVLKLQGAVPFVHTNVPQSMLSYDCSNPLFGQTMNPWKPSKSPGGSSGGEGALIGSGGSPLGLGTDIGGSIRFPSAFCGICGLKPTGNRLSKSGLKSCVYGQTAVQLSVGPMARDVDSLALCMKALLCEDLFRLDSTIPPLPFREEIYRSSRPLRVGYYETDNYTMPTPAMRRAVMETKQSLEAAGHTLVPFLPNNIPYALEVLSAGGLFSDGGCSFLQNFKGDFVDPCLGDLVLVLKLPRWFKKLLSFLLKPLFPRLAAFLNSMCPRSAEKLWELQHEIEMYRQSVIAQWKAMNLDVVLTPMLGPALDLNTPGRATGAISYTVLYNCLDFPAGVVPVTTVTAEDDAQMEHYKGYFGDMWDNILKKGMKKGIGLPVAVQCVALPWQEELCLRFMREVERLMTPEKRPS

ABHD6 [4] = target: T4, ABHD6 (Mus musculus, UniProt Q8R2Y0); experiment: as above; type: biochemical; conditions: read-out: % Inhibition at 1 μM ABHD6
T4 sequence (Q8R2Y0 1-336): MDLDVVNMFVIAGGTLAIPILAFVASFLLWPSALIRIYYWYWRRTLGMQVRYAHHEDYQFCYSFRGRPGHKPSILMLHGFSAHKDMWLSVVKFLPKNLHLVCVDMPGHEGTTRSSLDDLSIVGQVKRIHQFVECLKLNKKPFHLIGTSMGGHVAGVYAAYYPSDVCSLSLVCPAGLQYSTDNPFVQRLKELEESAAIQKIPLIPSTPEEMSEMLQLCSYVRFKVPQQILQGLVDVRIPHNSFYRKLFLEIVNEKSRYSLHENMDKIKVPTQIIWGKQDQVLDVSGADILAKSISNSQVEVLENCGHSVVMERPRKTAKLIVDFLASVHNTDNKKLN

ABHD6 [5] = target: T4, ABHD6; experiment: biochemical; conditions: in vitro competitive ABPP
FAAH [6] = target: T3, FAAH; experiment: biochemical; conditions: in vitro competitive ABPP

Compound	inhibition at 1 µM (MAGL [1]) [%]	inhibition at 5 mg/kg (Mouse brain MAGL) [%]	IC50 (MAGL [2]) [nM]	inhibition at 1 µM (FAAH [3]) [%]	inhibition at 1 µM (ABHD6 [4]) [%]	IC50 (ABHD6 [5]) [nM]	IC50 (FAAH [6]) [nM]
Cc1cccc(CN2CC3CN(C(=O)OC(C(F)(F)F)C(F)(F)F)CC3C2)c1N1CCC2(CCOC2)C1 (centres unmarked) [Example 40, 1,1,1,3,3,3-Hexafluoropropan-2-yl 5-[(3-methyl-2-[2-oxa-7-azaspiro[4.4]nonan-7-yl]phenyl)methyl]-octahydropyrrolo[3,4-c]pyrrole-2-carboxylate]	> 75	25 to 75	< 100	< 25	< 25	1000 to 10000	1000 to 10000
CCn1cc(CN2CC3CN(C(=O)OC(C(F)(F)F)C(F)(F)F)CC3C2)c(-c2cccnc2)n1 (centres unmarked) [Example 71, 1,1,1,3,3,3-Hexafluoropropan-2-yl 5-[[1-ethyl-3-(pyridin-3-yl)-1H-pyrazol-4-yl]methyl]-octahydropyrrolo[3,4-c]pyrrole-2-carboxylate]	> 75	25 to 75	< 100	< 25	25 to 75	1000 to 10000	1000 to 10000
Cc1cc(CN2CC3CN(C(=O)OC(C(F)(F)F)C(F)(F)F)CC3C2)n(C2CCCCC2)n1 (centres unmarked) [Example 58, 1,1,1,3,3,3-Hexafluoropropan-2-yl 5-[(1-cyclohexyl-3-methyl-1H-pyrazol-5-yl)methyl]-octahydropyrrolo[3,4-c]pyrrole-2-carboxylate]	> 75	≥ 75	< 100	< 25	25 to 75	1000 to 10000	> 10000
Cn1cc(CN2CC3CN(C(=O)OC(C(F)(F)F)C(F)(F)F)CC3C2)c(-c2ccccc2)n1 (centres unmarked) [Example 50, 1,1,1,3,3,3-Hexafluoropropan-2-yl 5-((1-methyl-3-phenyl-1H-pyrazol-4-yl)methyl)hexahydropyrrolo[3,4-c]pyrrole-2(1H)-carboxylate]	> 75	25 to 75	< 100	< 25	25 to 75	1000 to 10000	1000 to 10000
CC(C)c1cc(CN2CC3CN(C(=O)OC(C(F)(F)F)C(F)(F)F)CC3C2)n(C2CCCCC2)n1 (centres unmarked) [Example 61, 1,1,1,3,3,3-Hexafluoropropan-2-yl 5-[[1-cyclohexyl-3-(propan-2-yl)-1H-pyrazol-5-yl]methyl]-octahydropyrrolo[3,4-c]pyrrole-2-carboxylate]	> 75	≥ 75	< 100	< 25	25 to 75	1000 to 10000	> 10000
CCn1cc(CN2CC3CN(C(=O)OC(C(F)(F)F)C(F)(F)F)CC3C2)c(-c2cccc(N3CCOCC3)c2)n1 (centres unmarked) [Example 65, 1,1,1,3,3,3-Hexafluoropropan-2-yl 5-([1-ethyl-3-[3-(morpholin-4-yl)phenyl]-1H-pyrazol-4-yl]methyl)-octahydropyrrolo[3,4-c]pyrrole-2-carboxylate]	> 75	≤ 25	< 100	< 25	< 25	1000 to 10000	1000 to 10000
CS(=O)(=O)N1CC2(CCN(c3ccccc3CN3CC4CN(C(=O)OC(C(F)(F)F)C(F)(F)F)CC4C3)C2)C1 (centres unmarked) [Example 136, 1,1,1,3,3,3-hexafluoropropan-2-yl 5-[(2-[2-methanesulfonyl-2,6-diazaspiro[3.4]octan-6-yl]phenyl)methyl]-octahydropyrrolo[3,4-c]pyrrole-2-carboxylate]	> 75	≤ 25	< 100	< 25	< 25	1000 to 10000	1000 to 10000
CS(=O)(=O)N1CCC2(CCN(c3ccccc3CN3CC4CN(C(=O)OC(C(F)(F)F)C(F)(F)F)CC4C3)C2)C1 (centres unmarked) [Example 134, 1,1,1,3,3,3-hexafluoropropan-2-yl 5-[(2-[7-methanesulfonyl-2,7-diazaspiro[4.4]nonan-2-yl]phenyl)methyl]-octahydropyrrolo[3,4-c]pyrrole-2-carboxylate]	> 75	≤ 25	< 100	25 to 75	< 25	1000 to 10000	1000 to 10000
CCn1cc(CN2CC3CN(C(=O)OC(C(F)(F)F)C(F)(F)F)CC3C2)c(-c2cccc(N3CCCCC3)c2)n1 (centres unmarked) [Example 132, 1,1,1,3,3,3-hexafluoropropan-2-yl 5-([1-ethyl-3-[3-(piperidin-1-yl)phenyl]-1H-pyrazol-4-yl]methyl)-octahydropyrrolo[3,4-c]pyrrole-2-carboxylate]	> 75	≤ 25	< 100	< 25	< 25	1000 to 10000	1000 to 10000
CC(C)n1cc(CN2CC3CN(C(=O)OC(C(F)(F)F)C(F)(F)F)CC3C2)c(C2CCN(S(C)(=O)=O)CC2)n1 (centres unmarked) [Example 57, 1,1,1,3,3,3-Hexafluoropropan-2-yl 5-[[3-(1-methanesulfonylpiperidin-4-yl)-1-(propan-2-yl)-1H-pyrazol-4-yl]methyl]-octahydropyrrolo[3,4-c]pyrrole-2-carboxylate]	> 75	≤ 25	< 100	< 25	25 to 75	1000 to 10000	> 10000
O=C(OC(C(F)(F)F)C(F)(F)F)N1CC2CN(Cc3cc(CN4CCOCC4)ccc3OC(F)(F)F)CC2C1 (centres unmarked) [Example 188, 1,1,1,3,3,3-hexafluoropropan-2-yl 5-(5-(morpholinomethyl)-2-(trifluoromethoxy)benzyl)hexahydropyrrolo[3,4-c]pyrrole-2(1H)-carboxylate]	> 75	≥ 75	< 100	< 25	< 25	1000 to 10000	1000 to 10000
Cc1c(CN2CC3CN(C(=O)OC(C(F)(F)F)C(F)(F)F)CC3C2)cccc1N1CCOCC1 (centres unmarked) [Example 47, 1,1,1,3,3,3-Hexafluoropropan-2-yl 5-[[2-methyl-3-(morpholin-4-yl)phenyl]methyl]-octahydropyrrolo[3,4-c]pyrrole-2-carboxylate]	> 75	≥ 75	< 100	25 to 75	25 to 75	1000 to 10000	1000 to 10000
CCn1cc(CN2CC3CN(C(=O)OC(C(F)(F)F)C(F)(F)F)CC3C2)c(-c2ccccc2N2CCOCC2)n1 (centres unmarked) [Example 131, 1,1,1,3,3,3-hexafluoropropan-2-yl 5-([1-ethyl-3-[2-(morpholin-4-yl)phenyl]-1H-pyrazol-4-yl]methyl)-octahydropyrrolo[3,4-c]pyrrole-2-carboxylate]	> 75	≥ 75	< 100	< 25	< 25	1000 to 10000	> 10000
CCn1ncc(CN2CC3CN(C(=O)OC(C(F)(F)F)C(F)(F)F)CC3C2)c1C(=O)NC1CC1 (centres unmarked) [Example 74]	> 75	25 to 75	< 100	< 25	25 to 75	100 to 1000	> 10000
